In the supplement of paper PMC10307832:

Experiments:
Assay in all cases: relative viability (nuclei count vs DMSO), 5 days (fraction); higher = more cells survive
NCI-H1975 = tested on: NCI-H1975
Procedure, shortened: (§1)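 Each reported value is a median over duplicate plates. It expresses relative viability: treated-well nuclei count divided by vehicle-well nuclei count. Lung cancer cell lines in 1536-well plates were dosed by pin tool a day after seeding, alone with one drug or with a fixed anchor-drug dose plus five library-drug doses (not always all listed) in √10 steps, and nuclei were counted after 5 days.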

NCI-H23 = tested on: NCI-H23
Procedure, shortened: as §1

UMC-11 = tested on: UMC-11
Procedure, shortened: as §1

HOP-62 = tested on: HOP-62
Procedure, shortened: as §1

LU99A = tested on: LU99A
Procedure, shortened: as §1

NCI-H2405 = tested on: NCI-H2405
Procedure, shortened: as §1

NCI-H727 = tested on: NCI-H727
Procedure, shortened: as §1

EPLC-272H = tested on: EPLC-272H
Procedure, shortened: as §1

NCI-H838 = tested on: NCI-H838
Procedure, shortened: as §1

ABC-1 = tested on: ABC-1
Procedure, shortened: as §1

HCC-827 = tested on: HCC-827
Procedure, shortened: as §1

NCI-H520 = tested on: NCI-H520
Procedure, shortened: as §1

NCI-H647 = tested on: NCI-H647
Procedure, shortened: as §1

NCI-H596 = tested on: NCI-H596
Procedure, shortened: as §1

BEN = tested on: BEN
Procedure, shortened: as §1

NCI-H358 = tested on: NCI-H358
Procedure, shortened: as §1

NCI-H1355 = tested on: NCI-H1355
Procedure, shortened: as §1

NCI-H1792 = tested on: NCI-H1792
Procedure, shortened: as §1

PC-14 = tested on: PC-14
Procedure, shortened: as §1

NCI-H322M = tested on: NCI-H322M
Procedure, shortened: as §1

NCI-H3122 = tested on: NCI-H3122
Procedure, shortened: as §1

NCI-H1666 = tested on: NCI-H1666
Procedure, shortened: as §1

Cc1cnc(-c2cnc(NCCNc3ccc(C#N)cn3)nc2-c2ccc(Cl)cc2Cl)[nH]1 + C[C@]1(O)C[C@@H](c2nc(-c3ccc4ccc(-c5ccccc5)nc4c3)c3c(N)nccn32)C1 [Linsitinib] (partner 1 µM)
relative viability (NCI-H1975; first compound 0.08 µM): 1 | relative viability (NCI-H1975; first compound 0.253 µM): 0.847 | relative viability (NCI-H1975; first compound 0.8 µM): 0.836 | relative viability (NCI-H1975; first compound 2.53 µM): 0.603 | relative viability (NCI-H23; first compound 0.08 µM): 0.674 | relative viability (NCI-H23; first compound 0.253 µM): 0.555 | relative viability (NCI-H23; first compound 0.8 µM): 0.536 | relative viability (NCI-H23; first compound 2.53 µM): 0.691 | relative viability (UMC-11; first compound 0.08 µM): 1.04 | relative viability (UMC-11; first compound 0.253 µM): 1 | relative viability (UMC-11; first compound 0.8 µM): 1 | relative viability (UMC-11; first compound 2.53 µM): 0.985 | relative viability (HOP-62; first compound 0.08 µM): 1.09 | relative viability (HOP-62; first compound 0.253 µM): 0.972 | relative viability (HOP-62; first compound 0.8 µM): 0.775 | relative viability (HOP-62; first compound 2.53 µM): 0.794 | relative viability (LU99A; first compound 0.08 µM): 0.592 | relative viability (LU99A; first compound 0.253 µM): 0.538 | relative viability (LU99A; first compound 0.8 µM): 0.5 | relative viability (LU99A; first compound 2.53 µM): 0.569 | relative viability (NCI-H2405; first compound 0.08 µM): 1.25 | relative viability (NCI-H2405; first compound 0.253 µM): 0.856 | relative viability (NCI-H2405; first compound 0.8 µM): 0.999 | relative viability (NCI-H2405; first compound 2.53 µM): 0.709 | relative viability (NCI-H727; first compound 0.08 µM): 0.29 | relative viability (NCI-H727; first compound 0.253 µM): 0.334 | relative viability (NCI-H727; first compound 0.8 µM): 0.295 | relative viability (EPLC-272H; first compound 0.08 µM): 1.08 | relative viability (EPLC-272H; first compound 0.253 µM): 1.18 | relative viability (EPLC-272H; first compound 0.8 µM): 1.27 | relative viability (EPLC-272H; first compound 2.53 µM): 1.13 | relative viability (NCI-H838; first compound 0.08 µM): 1.02 | relative viability (NCI-H838; first compound 0.253 µM): 1.02 | relative viability (NCI-H838; first compound 0.8 µM): 1.25 | relative viability (NCI-H838; first compound 2.53 µM): 1.51 | relative viability (ABC-1; first compound 0.08 µM): 1.04 | relative viability (ABC-1; first compound 0.253 µM): 0.682 | relative viability (ABC-1; first compound 0.8 µM): 0.839 | relative viability (ABC-1; first compound 2.53 µM): 0.593 | relative viability (HCC-827; first compound 0.08 µM): 0.963 | relative viability (HCC-827; first compound 0.8 µM): 1.01 | relative viability (HCC-827; first compound 2.53 µM): 0.955 | relative viability (NCI-H520; first compound 0.08 µM): 0.974 | relative viability (NCI-H520; first compound 0.253 µM): 0.985 | relative viability (NCI-H520; first compound 0.8 µM): 0.965 | relative viability (NCI-H520; first compound 2.53 µM): 1.09 | relative viability (NCI-H647; first compound 0.08 µM): 1.17 | relative viability (NCI-H647; first compound 0.253 µM): 0.993 | relative viability (NCI-H647; first compound 0.8 µM): 1.17 | relative viability (NCI-H647; first compound 2.53 µM): 1.03 | relative viability (NCI-H596; first compound 0.08 µM): 1.02 | relative viability (NCI-H596; first compound 0.253 µM): 1.11 | relative viability (NCI-H596; first compound 0.8 µM): 1.06 | relative viability (NCI-H596; first compound 2.53 µM): 1.07 | relative viability (BEN; first compound 0.08 µM): 0.951 | relative viability (BEN; first compound 0.253 µM): 0.843 | relative viability (BEN; first compound 0.8 µM): 0.994 | relative viability (BEN; first compound 2.53 µM): 0.928 | relative viability (NCI-H358; first compound 0.08 µM): 0.833 | relative viability (NCI-H358; first compound 0.253 µM): 0.561 | relative viability (NCI-H358; first compound 0.8 µM): 0.696 | relative viability (NCI-H358; first compound 2.53 µM): 0.618 | relative viability (NCI-H1355; first compound 0.08 µM): 0.88 | relative viability (NCI-H1355; first compound 0.253 µM): 0.841 | relative viability (NCI-H1355; first compound 0.8 µM): 0.765 | relative viability (NCI-H1355; first compound 2.53 µM): 0.732 | relative viability (NCI-H1792; first compound 0.08 µM): 0.683 | relative viability (NCI-H1792; first compound 0.253 µM): 0.435 | relative viability (NCI-H1792; first compound 0.8 µM): 0.464 | relative viability (NCI-H1792; first compound 2.53 µM): 0.524 | relative viability (PC-14; first compound 0.08 µM): 0.946 | relative viability (PC-14; first compound 0.253 µM): 0.896 | relative viability (PC-14; first compound 0.8 µM): 0.913 | relative viability (PC-14; first compound 2.53 µM): 0.834 | relative viability (NCI-H322M; first compound 0.08 µM): 0.99 | relative viability (NCI-H322M; first compound 0.253 µM): 0.853 | relative viability (NCI-H322M; first compound 0.8 µM): 0.874 | relative viability (NCI-H322M; first compound 2.53 µM): 0.947 | relative viability (NCI-H3122; first compound 0.08 µM): 1.04 | relative viability (NCI-H3122; first compound 0.253 µM): 0.949 | relative viability (NCI-H3122; first compound 0.8 µM): 1.04 | relative viability (NCI-H3122; first compound 2.53 µM): 0.997 | relative viability (NCI-H1666; first compound 0.08 µM): 0.926 | relative viability (NCI-H1666; first compound 0.253 µM): 0.868 | relative viability (NCI-H1666; first compound 0.8 µM): 0.921 | relative viability (NCI-H1666; first compound 2.53 µM): 0.976
